Experiment: Acute toxicity, single oral administration
Type: in vivo, Rats (Sprague Dawley strain)
Conditions: for Mortality, Days after treatment 1 / Mortality, Days after treatment 2 / Mortality, Days after treatment 3 / Mortality, Days after treatment 4 / Mortality, Days after treatment 5 / Mortality, Days after treatment 6 / Mortality, Days after treatment 7 / Mortality, Days after treatment 8 / Mortality, Days after treatment 9 / Mortality, Days after treatment 10 / Mortality, Days after treatment 11 / Mortality, Days after treatment 12 / Mortality, Days after treatment 13 / Mortality, Days after treatment 14 / Mortality, Hours after treatment 1 / Mortality, Hours after treatment 2 / Mortality, Hours after treatment 3 / Mortality, Hours after treatment 4 / Mortality, Hours after treatment 5 / Mortality, Hours after treatment 6 / Final mortality / Final mortality (dead/total): Female; for Final mortality / Final mortality (dead/total): 14 days; for LD50 (50% Lethal Dose): oral administration
Description: The acute toxicity of oral administration of HD-2 was evaluated according to toxicity assessment criteria described in Article 96-8 of Notice on Food and Drug Safety (Apr. 16, 1994). Rats (Sprague Dawley strain) were used for animal experiments. Dosage of a single, oral administration ranged from 0.4 to 1.25 g/kg body weight in male rats and 0.4 to […] body weight in female rats. General conditions of the animals, toxic symptoms, and mortality were measured every hour for the initial 6 hours following the single administration and once a day afterwards for 14 days. Body weights were measured before starting the study, 7 days after the administration, and at autopsy. Expired rats were studied to find the cause of death at autopsy. […] Some rats manifesting these clinical symptoms expired, but others recovered to normal condition within 2 to 3 days of clinical symptoms.

O1[As]2O[As]3O[As]1O[As](O2)O3 [HD-2, arsenic hexoxide (As4O6)]
Mortality, Days after treatment 1 (0.4 g/kg B.W. oral): 0 | Mortality, Days after treatment 2 (0.4 g/kg B.W. oral): 0 | Mortality, Days after treatment 3 (0.4 g/kg B.W. oral): 0 | Mortality, Days after treatment 4 (0.4 g/kg B.W. oral): 0 | Mortality, Days after treatment 5 (0.4 g/kg B.W. oral): 0 | Mortality, Days after treatment 6 (0.4 g/kg B.W. oral): 0 | Mortality, Days after treatment 7 (0.4 g/kg B.W. oral): 0 | Mortality, Days after treatment 8 (0.4 g/kg B.W. oral): 0 | Mortality, Days after treatment 9 (0.4 g/kg B.W. oral): 0 | Mortality, Days after treatment 10 (0.4 g/kg B.W. oral): 0 | Mortality, Days after treatment 11 (0.4 g/kg B.W. oral): 0 | Mortality, Days after treatment 12 (0.4 g/kg B.W. oral): 0 | Mortality, Days after treatment 13 (0.4 g/kg B.W. oral): 0 | Mortality, Days after treatment 14 (0.4 g/kg B.W. oral): 0 | Mortality, Hours after treatment 1 (0.4 g/kg B.W. oral): 0 | Mortality, Hours after treatment 2 (0.4 g/kg B.W. oral): 0 | Mortality, Hours after treatment 3 (0.4 g/kg B.W. oral): 0 | Mortality, Hours after treatment 4 (0.4 g/kg B.W. oral): 0 | Mortality, Hours after treatment 5 (0.4 g/kg B.W. oral): 0 | Mortality, Hours after treatment 6 (0.4 g/kg B.W. oral): 0 | Final mortality (0.4 g/kg B.W. oral): 0% | Final mortality (dead/total) (0.4 g/kg B.W. oral): 0/5 | Mortality, Days after treatment 1 (0.5 g/kg B.W. oral): 0 | Mortality, Days after treatment 2 (0.5 g/kg B.W. oral): 0 | Mortality, Days after treatment 3 (0.5 g/kg B.W. oral): 0 | Mortality, Days after treatment 4 (0.5 g/kg B.W. oral): 0 | Mortality, Days after treatment 5 (0.5 g/kg B.W. oral): 0 | Mortality, Days after treatment 6 (0.5 g/kg B.W. oral): 0 | Mortality, Days after treatment 7 (0.5 g/kg B.W. oral): 0 | Mortality, Days after treatment 8 (0.5 g/kg B.W. oral): 0 | Mortality, Days after treatment 9 (0.5 g/kg B.W. oral): 0 | Mortality, Days after treatment 10 (0.5 g/kg B.W. oral): 0 | Mortality, Days after treatment 11 (0.5 g/kg B.W. oral): 0 | Mortality, Days after treatment 12 (0.5 g/kg B.W. oral): 0 | Mortality, Days after treatment 13 (0.5 g/kg B.W. oral): 0 | Mortality, Days after treatment 14 (0.5 g/kg B.W. oral): 0 | Mortality, Hours after treatment 1 (0.5 g/kg B.W. oral): 0 | Mortality, Hours after treatment 2 (0.5 g/kg B.W. oral): 0 | Mortality, Hours after treatment 3 (0.5 g/kg B.W. oral): 0 | Mortality, Hours after treatment 4 (0.5 g/kg B.W. oral): 0 | Mortality, Hours after treatment 5 (0.5 g/kg B.W. oral): 0 | Mortality, Hours after treatment 6 (0.5 g/kg B.W. oral): 0 | Final mortality (0.5 g/kg B.W. oral): 0% | Final mortality (dead/total) (0.5 g/kg B.W. oral): 0/5 | Mortality, Days after treatment 1 (0.58 g/kg B.W. oral): 1 | Mortality, Days after treatment 2 (0.58 g/kg B.W. oral): 1 | Mortality, Days after treatment 3 (0.58 g/kg B.W. oral): 0 | Mortality, Days after treatment 4 (0.58 g/kg B.W. oral): 0 | Mortality, Days after treatment 5 (0.58 g/kg B.W. oral): 0 | Mortality, Days after treatment 6 (0.58 g/kg B.W. oral): 0 | Mortality, Days after treatment 7 (0.58 g/kg B.W. oral): 0 | Mortality, Days after treatment 8 (0.58 g/kg B.W. oral): 0 | Mortality, Days after treatment 9 (0.58 g/kg B.W. oral): 0 | Mortality, Days after treatment 10 (0.58 g/kg B.W. oral): 0 | Mortality, Days after treatment 11 (0.58 g/kg B.W. oral): 0 | Mortality, Days after treatment 12 (0.58 g/kg B.W. oral): 0 | Mortality, Days after treatment 13 (0.58 g/kg B.W. oral): 0 | Mortality, Days after treatment 14 (0.58 g/kg B.W. oral): 0 | Mortality, Hours after treatment 1 (0.58 g/kg B.W. oral): 0 | Mortality, Hours after treatment 2 (0.58 g/kg B.W. oral): 0 | Mortality, Hours after treatment 3 (0.58 g/kg B.W. oral): 0 | Mortality, Hours after treatment 4 (0.58 g/kg B.W. oral): 0 | Mortality, Hours after treatment 5 (0.58 g/kg B.W. oral): 0 | Mortality, Hours after treatment 6 (0.58 g/kg B.W. oral): 0 | Final mortality (0.58 g/kg B.W. oral): 40% | Final mortality (dead/total) (0.58 g/kg B.W. oral): 2/5 | Mortality, Days after treatment 1 (0.62 g/kg B.W. oral): 3 | Mortality, Days after treatment 2 (0.62 g/kg B.W. oral): 1 | Mortality, Days after treatment 3 (0.62 g/kg B.W. oral): 0 | Mortality, Days after treatment 4 (0.62 g/kg B.W. oral): 0 | Mortality, Days after treatment 5 (0.62 g/kg B.W. oral): 0 | Mortality, Days after treatment 6 (0.62 g/kg B.W. oral): 0 | Mortality, Days after treatment 7 (0.62 g/kg B.W. oral): 0 | Mortality, Days after treatment 8 (0.62 g/kg B.W. oral): 0 | Mortality, Days after treatment 9 (0.62 g/kg B.W. oral): 0 | Mortality, Days after treatment 10 (0.62 g/kg B.W. oral): 0 | Mortality, Days after treatment 11 (0.62 g/kg B.W. oral): 0 | Mortality, Days after treatment 12 (0.62 g/kg B.W. oral): 0 | Mortality, Days after treatment 13 (0.62 g/kg B.W. oral): 0 | Mortality, Days after treatment 14 (0.62 g/kg B.W. oral): 0 | Mortality, Hours after treatment 1 (0.62 g/kg B.W. oral): 0 | Mortality, Hours after treatment 2 (0.62 g/kg B.W. oral): 0 | Mortality, Hours after treatment 3 (0.62 g/kg B.W. oral): 0 | Mortality, Hours after treatment 4 (0.62 g/kg B.W. oral): 0 | Mortality, Hours after treatment 5 (0.62 g/kg B.W. oral): 0 | Mortality, Hours after treatment 6 (0.62 g/kg B.W. oral): 0 | Final mortality (0.62 g/kg B.W. oral): 80% | Final mortality (dead/total) (0.62 g/kg B.W. oral): 4/5 | Mortality, Days after treatment 1 (0.625 g/kg B.W. oral): 1 | Mortality, Days after treatment 2 (0.625 g/kg B.W. oral): 0 | Mortality, Days after treatment 3 (0.625 g/kg B.W. oral): 0 | Mortality, Days after treatment 4 (0.625 g/kg B.W. oral): 0 | Mortality, Days after treatment 5 (0.625 g/kg B.W. oral): 0 | Mortality, Days after treatment 6 (0.625 g/kg B.W. oral): 0 | Mortality, Days after treatment 7 (0.625 g/kg B.W. oral): 0 | Mortality, Days after treatment 8 (0.625 g/kg B.W. oral): 0 | Mortality, Days after treatment 9 (0.625 g/kg B.W. oral): 0 | Mortality, Days after treatment 10 (0.625 g/kg B.W. oral): 0 | Mortality, Days after treatment 11 (0.625 g/kg B.W. oral): 0 | Mortality, Days after treatment 12 (0.625 g/kg B.W. oral): 0 | Mortality, Days after treatment 13 (0.625 g/kg B.W. oral): 0 | Mortality, Days after treatment 14 (0.625 g/kg B.W. oral): 0 | Mortality, Hours after treatment 1 (0.625 g/kg B.W. oral): 0 | Mortality, Hours after treatment 2 (0.625 g/kg B.W. oral): 0 | Mortality, Hours after treatment 3 (0.625 g/kg B.W. oral): 0 | Mortality, Hours after treatment 4 (0.625 g/kg B.W. oral): 0 | Mortality, Hours after treatment 5 (0.625 g/kg B.W. oral): 0 | Mortality, Hours after treatment 6 (0.625 g/kg B.W. oral): 0 | Final mortality (0.625 g/kg B.W. oral): 100% | Final mortality (dead/total) (0.625 g/kg B.W. oral): 5/5 | Changes in weight vs control group (all subgroups of different dosages): did not show any significant difference | LD50 (50% Lethal Dose) (female rats): 0.58 g/kg body weight | LD50 (50% Lethal Dose) (male rats): 0.81 g/kg body weight

From patent publication US7261906B2, “Anti-cancer therapy agent of arsenic hexoxide (As4O6) of a natural chemical substance and its pharmaceutical composition” (priority 1998, dated 2007)
